Reference: patent US7932270B2 (Cytokinetics, Inc., priority 2006, dated 2011)

Target: T1, chicken gizzard smooth muscle myosin subfragment-1 chemically crosslinked to cardiac or skeletal actin (Gallus gallus, UniProt P10587)
T1 construct: chicken gizzard smooth muscle myosin subfragment-1; from tissue; host or cells: chicken gizzard
Assay: Smooth muscle myosin ATPase dose response assay (pyruvate kinase/horseradish peroxidase/pyruvate oxidase-coupled, amplex red fluorescence)
Assay type: biochemical
Conditions: read-out: IC50 Arithmetic Mean
Procedure, shortened: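 EDC/NHS-crosslinked S1–actin, amount set per prep by rate titration. Buffer: 12 mM K-PIPES pH 7.00 (22° C), 100 mM KCl, 2 mM MgCl2, 0.15 mM ATP, 0.1 mM PEP, 2 mM KPi, 0.1 mM amplex red. Read ex 480/em 615 nm; IC50 = midpoint, 4-param Hill fit.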

T1 sequence (P02607 2-151): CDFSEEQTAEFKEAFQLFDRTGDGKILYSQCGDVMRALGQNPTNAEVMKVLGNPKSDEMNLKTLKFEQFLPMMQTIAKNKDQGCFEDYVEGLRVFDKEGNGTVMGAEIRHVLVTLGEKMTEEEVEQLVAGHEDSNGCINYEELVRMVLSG
T1 sequence (P10587 84-789): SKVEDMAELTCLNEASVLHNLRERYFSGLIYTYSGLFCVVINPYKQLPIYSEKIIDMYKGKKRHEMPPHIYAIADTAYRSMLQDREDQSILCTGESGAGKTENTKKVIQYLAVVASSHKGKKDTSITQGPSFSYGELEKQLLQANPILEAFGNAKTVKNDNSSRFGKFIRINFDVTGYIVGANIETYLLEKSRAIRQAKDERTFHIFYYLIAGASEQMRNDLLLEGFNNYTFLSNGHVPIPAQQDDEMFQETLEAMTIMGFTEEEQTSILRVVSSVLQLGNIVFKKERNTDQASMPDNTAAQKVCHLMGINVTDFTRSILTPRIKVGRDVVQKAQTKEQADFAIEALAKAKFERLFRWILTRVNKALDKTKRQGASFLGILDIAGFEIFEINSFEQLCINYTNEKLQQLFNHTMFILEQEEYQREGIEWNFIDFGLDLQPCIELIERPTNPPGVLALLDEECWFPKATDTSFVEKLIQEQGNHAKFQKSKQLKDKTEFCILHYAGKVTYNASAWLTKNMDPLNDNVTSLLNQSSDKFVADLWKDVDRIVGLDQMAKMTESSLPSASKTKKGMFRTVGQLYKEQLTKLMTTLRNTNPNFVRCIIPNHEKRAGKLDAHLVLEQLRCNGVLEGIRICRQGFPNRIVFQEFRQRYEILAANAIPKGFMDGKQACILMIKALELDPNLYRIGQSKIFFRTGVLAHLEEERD

IC50 [µM] | Structure (SMILES)
0.014 | N#Cc1cscc1-c1ccc(C(=O)NCc2cccnc2)c(NCCc2cccc(F)c2)n1 [(6-(4-cyano(3-thienyl))-2-{[2-(3-fluorophenyl)ethyl]amino}(3-pyridyl))-N-(3-pyridylmethyl)carboxamide]
0.014 | N#Cc1ccccc1-c1ccc(C(=O)NCC2CCCNC2=O)c(NCCc2cccc(F)c2)n1 (stereo not shown) [(6-(2-cyanophenyl)-2-{[2-(3-fluorophenyl)ethyl]amino}(3-pyridyl))-N-[(2-oxo(3-piperidyl))methyl]carboxamide]
2.08 | Cc1ccc(-c2ccc(C(=O)NCc3cccnc3)c(NCCc3cccc(F)c3)n2)c(Cl)c1 [(6-(2-chloro-4-methylphenyl)-2-{[2-(3-fluorophenyl)ethyl]amino}(3-pyridyl))-N-(3-pyridylmethyl)carboxamide]
3.18 | Cn1cc(-c2ccc(C(=O)NC[C@H]3CCCN3)c(NCCc3cccc(F)c3)n2)cn1 [N-[((2R)pyrrolidin-2-yl)methyl](2-{[2-(3-fluorophenyl)ethyl]amino}-6-(1-methylpyrazol-4-yl)(3-pyridyl))carboxamide]
52.5 | NCC(O)c1ccc(-c2ccccc2)nc1NCCc1cccc(F)c1 (stereo not shown) [2-amino-1-(2-{[2-(3-fluorophenyl)ethyl]amino}-6-phenyl(3-pyridyl))ethan-1-ol]
0.234 | N#Cc1ccccc1-c1ccc(C(=O)NC[C@H]2CCCN2S(=O)(=O)CCCN)c(NCCc2cccc(F)c2)n1 [N-({(2R)-1-[(3-aminopropyl)sulfonyl]pyrrolidin-2-yl}methyl)(6-(2-cyanophenyl)-2-{[2-(3-fluorophenyl)ethyl]amino}(3-pyridyl))carboxamide]
0.015 | N#Cc1ccccc1-c1ccc(C(=O)NCc2cc[nH]n2)c(NCCc2cccc(F)c2)n1 [(6-(2-cyanophenyl)-2-{[2-(3-fluorophenyl)ethyl]amino}(3-pyridyl))-N-(pyrazol-3-ylmethyl)carboxamide]
9.04 | CC(C)(C)OC(=O)N1CCC[C@@H]1CNC(=O)c1cc(F)c(-c2ccccc2C#N)nc1NCCc1cccc(F)c1 [tert-butyl (2R)-2-{[(6-(2-cyanophenyl)-5-fluoro-2-{[2-(3-fluorophenyl)ethyl]amino}(3-pyridyl))carbonylamino]methyl}pyrrolidinecarboxylate]
2.99 | N#Cc1cccc(-c2ccc(C(=O)NCc3cccnc3)c(NCCc3ccccn3)n2)c1 [{6-(3-cyanophenyl)-2-[(2-(2-pyridyl)ethyl)amino](3-pyridyl)}-N-(3-pyridylmethyl)carboxamide]
0.532 | O=C(NCc1cccnc1)c1ccc(-c2ccccc2)nc1NCCC1=CCCCC1 [{2-[(2-cyclohex-1-enylethyl)amino]-6-phenyl(3-pyridyl)}-N-(3-pyridylmethyl)carboxamide]
2.26 | C[C@H](CNC(=O)c1cc(F)c(-c2cnn(C)c2)nc1NCCc1cccc(F)c1)NC(=O)[C@H](CO)NC(=O)OC(C)(C)C
0.041 | C[C@H](CNC(=O)c1ccc(-c2ccccc2C#N)nc1NCCc1cccc(F)c1)NC(=O)CN
0.352 | N#Cc1ccccc1-c1ccc(C(=O)N[C@@H]2CCCNC2=O)c(NCCc2cccc(F)c2)n1 [N-((3R)-2-oxo(3-piperidyl))(6-(2-cyanophenyl)-2-{[2-(3-fluorophenyl)ethyl]amino}(3-pyridyl))carboxamide]
0.538 | N#Cc1ccccc1-c1ccc(C(=O)N[C@H](CN)C(N)=O)c(NCCc2cccc(F)c2)n1 [N-((1R)-2-amino-1-carbamoylethyl)(6-(2-cyanophenyl)-2-{[2-(3-fluorophenyl)ethyl]amino}(3-pyridyl))carboxamide]
0.073 | COC(=O)[C@H](C)CNC(=O)c1cc(F)c(-c2cn[nH]c2)nc1NCCc1cccc(F)c1 [methyl (2R)-3-[(5-fluoro-2-{[2-(3-fluorophenyl)ethyl]amino}-6-pyrazol-4-yl(3-pyridyl))carbonylamino]-2-methylpropanoate]
0.099 | C[C@H](N)C(=O)N1CCC[C@@H]1CNC(=O)c1cc(F)c(-c2cnn(C)c2)nc1NCCc1cccc(F)c1 [N-{[(2R)-1-((2S)-2-aminopropanoyl)pyrrolidin-2-yl]methyl}(5-fluoro-2-{[2-(3-fluorophenyl)ethyl]amino}-6-(1-methylpyrazol-4-yl)(3-pyridyl))carboxamide]

IC50 [µM] | Structure (SMILES)
19.6 | N#Cc1ccccc1-c1ccc(C(=O)N[C@H](CCCNC(=O)OCc2ccccc2)C(N)=O)c(NCCc2cccc(F)c2)n1 [N-{(4R)-4-carbamoyl-4-[(6-(2-cyanophenyl)-2-{[2-(3-fluorophenyl)ethyl]amino}(3-pyridyl))carbonylamino]butyl}(phenylmethoxy)carboxamide]
1.6 | Cn1cc(-c2nc(NCCc3cccc(F)c3)c(C(=O)NC[C@H]3CCCN3C(=O)OC(C)(C)C)cc2Cl)cn1 [tert-butyl (2R)-2-{[(5-chloro-2-{[2-(3-fluorophenyl)ethyl]amino}-6-(1-methylpyrazol-4-yl)(3-pyridyl))carbonylamino]methyl}pyrrolidinecarboxylate]
1.48 | O=C(NCc1cccnc1)c1ccc(-c2ccccc2)nc1NCCc1ncccc1F [(2-{[2-(3-fluoro(2-pyridyl))ethyl]amino}-6-phenyl(3-pyridyl))-N-(3-pyridylmethyl)carboxamide]
0.048 | N#Cc1ccccc1-c1ccc(C(=O)NC[C@H]2CCCCN2C(=O)[C@@H](N)CCCN)c(NCCc2cccc(F)c2)n1 [N-{[(2R)-1-((2S)-2,5-diaminopentanoyl)(2-piperidyl)]methyl}(6-(2-cyanophenyl)-2-{[2-(3-fluorophenyl)ethyl]amino}(3-pyridyl))carboxamide]
12.2 | N#Cc1ccccc1-c1ccc(C(=O)NCC(=O)NCCC(N)=O)c(NCCc2cccc(F)c2)n1 [N-(2-carbamoylethyl)-2-[(6-(2-cyanophenyl)-2-{[2-(3-fluorophenyl)ethyl]amino}(3-pyridyl))carbonylamino]acetamide]
4.83 | O=C(NCc1cccnc1)c1ccc(-c2ccccc2)nc1NCC1CCCO1 (stereo not shown) [{2-[(oxolan-2-ylmethyl)amino]-6-phenyl(3-pyridyl)}-N-(3-pyridylmethyl)carboxamide]
0.549 | NC(=O)CCNC(=O)c1ccc(-c2ccc(CO)s2)nc1NCCc1cccc(F)c1 [N-(2-carbamoylethyl)(2-{[2-(3-fluorophenyl)ethyl]amino}-6-[5-(hydroxymethyl)(2-thienyl)](3-pyridyl))carboxamide]
0.307 | Cn1cc(-c2nc(NCCc3cccc(F)c3)c(C(=O)NCC(O)CO)cc2F)cn1 (stereo not shown) [N-(2,3-dihydroxypropyl)(5-fluoro-2-{[2-(3-fluorophenyl)ethyl]amino}-6-(1-methylpyrazol-4-yl)(3-pyridyl))carboxamide]
4.79 | CCOC(=O)CCNC(=O)c1ccc(-c2ccccc2C#N)nc1NCCc1cccc(F)c1 [ethyl 3-[(6-(2-cyanophenyl)-2-{[2-(3-fluorophenyl)ethyl]amino}-3-pyridyl)carbonylamino]propanoate]
17.9 | COc1ccccc1-c1ccc(C(=O)NCc2cccnc2)c(NCCc2ccccn2)n1 [{6-(2-methoxyphenyl)-2-[(2-(2-pyridyl)ethyl)amino](3-pyridyl)}-N-(3-pyridylmethyl)carboxamide]
0.152 | C[C@@H](CNC(=O)CN)CNC(=O)c1cc(F)c(-c2cnn(C)c2)nc1NCCc1cccc(F)c1 [N-{(2R)-3-[(5-fluoro-2-{[2-(3-fluorophenyl)ethyl]amino}-6-(1-methylpyrazol-4-yl)(3-pyridyl))carbonylamino]-2-methylpropyl}-2-aminoacetamide]
0.534 | COC(=O)CCC(=O)N1CCC[C@@H]1CNC(=O)c1cc(F)c(-c2cnn(C)c2)nc1NCCc1cccc(F)c1 [methyl 4-((2R)-2-{[(5-fluoro-2-{[2-(3-fluorophenyl)ethyl]amino}-6-(1-methylpyrazol-4-yl)(3-pyridyl))carbonylamino]methyl}pyrrolidinyl)-4-oxobutanoate]
6.01 | N#Cc1ccccc1-c1ccc(C(=O)NCC2CCN(C(=O)CCCN)CC2)c(NCCc2cccc(F)c2)n1 [N-{[1-(4-aminobutanoyl)(4-piperidyl)]methyl}(6-(2-cyanophenyl)-2-{[2-(3-fluorophenyl)ethyl]amino}(3-pyridyl))carboxamide]
3.94 | COC(=O)CCC(=O)N1CCC[C@@H]1CNC(=O)c1ccc(-c2cnn(C)c2)nc1NCCc1cccc(F)c1 [methyl 4-((2R)-2-{[(2-{[2-(3-fluorophenyl)ethyl]amino}-6-(1-methylpyrazol-4-yl)(3-pyridyl))carbonylamino]methyl}pyrrolidinyl)-4-oxobutanoate]
1.21 | NCc1ccnc(CNC(=O)c2ccc(-c3ccccc3)nc2NCCc2cccc(F)c2)c1 [N-{[4-(aminomethyl)(2-pyridyl)]methyl}(2-{[2-(3-fluorophenyl)ethyl]amino}-6-phenyl(3-pyridyl))carboxamide]

Structure (SMILES) | IC50 [µM]
Cn1cc(-c2nc(NCCc3cccc(F)c3)c(C(=O)NCc3cccnc3CNC(=O)OC(C)(C)C)cc2F)cn1 [N-[(2-{[(tert-butoxy)carbonylamino]methyl}(3-pyridyl))methyl](5-fluoro-2-{[2-(3-fluorophenyl)ethyl]amino}-6-(1-methylpyrazol-4-yl)(3-pyridyl))carboxamide] | 0.388
C[C@H](NC(=O)OC(C)(C)C)C(=O)N1CCC[C@@H]1CNC(=O)c1cc(F)c(-c2cnn(C)c2)nc1NCCc1cccc(F)c1 [N-[2-((2R)-2-{[(5-fluoro-2-{[2-(3-fluorophenyl)ethyl]amino}-6-(1-methylpyrazol-4-yl)(3-pyridyl))carbonylamino]methyl}pyrrolidinyl)(1S)-1-methyl-2-oxoethyl](tert-butoxy)carboxamide] | 1.95
CN(CCNC(=O)c1ccc(-c2ccccc2C#N)nc1NCCc1cccc(F)c1)C(=O)CCCNC(=O)OC(C)(C)C [4-[(tert-butoxy)carbonylamino]-N-{2-[(6-(2-cyanophenyl)-2-{[2-(3-fluorophenyl)ethyl]amino}(3-pyridyl))carbonylamino]ethyl}-N-methylbutanamide] | 3.88
